# Results reported in ChEMBL document CHEMBL1147275, “An Antibiotic from Trichoderma Koningii Active Against Soilborne Plant Pathogens” (1989).
# Key:
# Assay type in all cases: functional
# [1] = test system: Fusarium oxysporum; assay: Antimicrobial activity of agar culture isolated compound against Fusarium oxysporum assessed as colony area after 2 days
# [2] = test system: Fusarium oxysporum; assay: Antimicrobial activity of agar culture isolated compound against Fusarium oxysporum assessed as colony area after 3 days
# [3] = test system: Globisporangium middletonii; assay: Antimicrobial activity of agar culture isolated compound against Pythium middletonii assessed as colony area after 2 days
# [4] = test system: Gaeumannomyces tritici; assay: Antimicrobial activity of broth culture isolated compound against Gaeumannomyces graminis var. tritici assessed as colony area after 3 days
# [5] = test system: Gaeumannomyces tritici; assay: Antimicrobial activity of agar culture isolated compound against Gaeumannomyces graminis var. tritici assessed as colony area after 2 days
# [6] = test system: Phytophthora cinnamomi; assay: Antimicrobial activity of agar culture isolated compound against Phytophthora cinnamomi assessed as colony area after 2 days
# [7] = test system: Fusarium oxysporum; assay: Antimicrobial activity of agar culture isolated compound against Fusarium oxysporum assessed as colony area after 1 day
# [8] = test system: Gaeumannomyces tritici; assay: Antimicrobial activity of broth culture isolated compound against Gaeumannomyces graminis var. tritici assessed as colony area after 2 days
# [9] = test system: Phytophthora cinnamomi; assay: Antimicrobial activity of agar culture isolated compound against Phytophthora cinnamomi assessed as colony area after 1 day
# [10] = test system: Bipolaris sorokiniana; assay: Antimicrobial activity of agar culture isolated compound against Bipolaris sorokiniana assessed as colony area after 3 days
# [11] = test system: Rhizoctonia solani; assay: Antimicrobial activity of agar culture isolated compound against Rhizoctonia solani assessed as colony area after 2 days
# [12] = test system: Rhizoctonia solani; assay: Antimicrobial activity of agar culture isolated compound against Rhizoctonia solani assessed as colony area after 3 days
# [13] = test system: Rhizoctonia solani; assay: Antimicrobial activity of agar culture isolated compound against Rhizoctonia solani assessed as colony area after 1 day
# [14] = test system: Gaeumannomyces tritici; assay: Antimicrobial activity of broth culture isolated compound against Gaeumannomyces graminis var. tritici assessed as colony area after 6 days
# [15] = test system: Bipolaris sorokiniana; assay: Antimicrobial activity of agar culture isolated compound against Bipolaris sorokiniana assessed as colony area after 1 day
# [16] = test system: Globisporangium middletonii; assay: Antimicrobial activity of agar culture isolated compound against Pythium middletonii assessed as colony area after 1 day
# [17] = test system: Gaeumannomyces tritici; assay: Antimicrobial activity of agar culture isolated compound against Gaeumannomyces graminis var. tritici assessed as colony area after 1 day
# [18] = test system: Gaeumannomyces tritici; assay: Antimicrobial activity of agar culture isolated compound against Gaeumannomyces graminis var. tritici assessed as colony area after 3 days
# [19] = test system: Gaeumannomyces tritici; assay: Antimicrobial activity of broth culture isolated compound against Gaeumannomyces graminis var. tritici assessed as colony area after 4 days
# [20] = test system: Gaeumannomyces tritici; assay: Antimicrobial activity of broth culture isolated compound against Gaeumannomyces graminis var. tritici assessed as colony area after 5 days
# [21] = test system: Bipolaris sorokiniana; assay: Antimicrobial activity of agar culture isolated compound against Bipolaris sorokiniana assessed as colony area after 2 days
# [22] = test system: Globisporangium middletonii; assay: Antimicrobial activity of agar culture isolated compound against Pythium middletonii assessed as colony area after 3 days
# [23] = test system: Phytophthora cinnamomi; assay: Antimicrobial activity of agar culture isolated compound against Phytophthora cinnamomi assessed as colony area after 3 days
compound,measurement,setting,value
CCCCCC[C@H](O)[C@@H]1C[C@@H](O)C2=C(O1)[C@H](O)CCC2=O,Activity,[1],103 mm2
same,Activity,[2],170 mm2
same,Activity,[3],184 mm2
same,Activity,[4],33 mm2
same,Activity,[5],42 mm2
same,Activity,[6],38 mm2
same,Activity,[7],46 mm2
same,Activity,[8],32 mm2
same,Activity,[9],37 mm2
same,Activity,[10],45 mm2
same,Activity,[11],42 mm2
same,Activity,[12],46 mm2
same,Activity,[13],38 mm2
same,Activity,[14],549 mm2
same,Activity,[15],44 mm2
same,Activity,[16],38 mm2
same,Activity,[17],40 mm2
same,Activity,[18],44 mm2
same,Activity,[19],63 mm2
same,Activity,[20],198 mm2
same,Activity,[21],46 mm2
same,Activity,[22],232 mm2
same,Activity,[23],92 mm2
